US8703961B2, “Thiazole derivatives for the treatment of diseases such as cancer” (Merck Patent GmbH, priority 2009, dated 2014)

Tests used:
Assay in all cases: filter binding kinase assay
Format in all cases: biochemical
BTK = target: T1, BTK (Homo sapiens, UniProt Q06187); details: derived from % inhibition at 1 μM
T1 construct: purchased
Description: (§1) All kinase assays were carried out using the Multidrop 384 from Thermo-Fisher at room temperature in a total assay volume of 25.5 μl. 15 μl of an enzyme mix comprising enzyme and substrate in buffer are added to the test batch comprising either 0.5 μl of test substance, DMSO control or empty container. Test substances are pre-incubated in the presence of the enzyme and substrate for 5 minutes before the reaction is initiated by addition of 10 μl of ATP (concentration kinase-dependent of […]). The reaction is terminated by addition of 5 μl of orthophosphoric acid (50 mM). The test containers are then transferred onto P81 Unifilter plates by means of a “Packard Harvester” and dried in air. The dry Unifilter plates are sealed after the addition of MicroScint O, and the radioactivity is determined in a Packard Topcount NXT.

MAPKAPK5 = target: T2, MAPKAPK5 (Homo sapiens, UniProt Q8IW41); details: derived from % inhibition at 1 μM
T2 construct: purchased
T2 sequence (Q8IW41 1-473): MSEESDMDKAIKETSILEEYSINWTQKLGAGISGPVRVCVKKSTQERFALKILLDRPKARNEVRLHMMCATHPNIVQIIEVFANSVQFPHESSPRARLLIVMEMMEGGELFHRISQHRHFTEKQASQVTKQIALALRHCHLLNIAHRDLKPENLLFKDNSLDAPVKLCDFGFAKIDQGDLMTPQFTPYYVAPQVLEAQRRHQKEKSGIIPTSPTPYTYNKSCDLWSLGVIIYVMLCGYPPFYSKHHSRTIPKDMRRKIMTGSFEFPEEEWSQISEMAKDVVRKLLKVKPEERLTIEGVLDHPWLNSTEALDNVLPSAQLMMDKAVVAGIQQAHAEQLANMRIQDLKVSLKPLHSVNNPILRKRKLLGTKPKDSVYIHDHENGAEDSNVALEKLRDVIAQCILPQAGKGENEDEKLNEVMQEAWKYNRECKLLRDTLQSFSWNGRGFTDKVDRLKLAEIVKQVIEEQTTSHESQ
Description: as §1

KDR (VEGFR) = target: T3, KDR (VEGFR) (Homo sapiens, UniProt P35968); details: for IC50: derived from % inhibition at 1 μM
T3 construct: purchased
T3 sequence (P35968 20-1356, species assumed): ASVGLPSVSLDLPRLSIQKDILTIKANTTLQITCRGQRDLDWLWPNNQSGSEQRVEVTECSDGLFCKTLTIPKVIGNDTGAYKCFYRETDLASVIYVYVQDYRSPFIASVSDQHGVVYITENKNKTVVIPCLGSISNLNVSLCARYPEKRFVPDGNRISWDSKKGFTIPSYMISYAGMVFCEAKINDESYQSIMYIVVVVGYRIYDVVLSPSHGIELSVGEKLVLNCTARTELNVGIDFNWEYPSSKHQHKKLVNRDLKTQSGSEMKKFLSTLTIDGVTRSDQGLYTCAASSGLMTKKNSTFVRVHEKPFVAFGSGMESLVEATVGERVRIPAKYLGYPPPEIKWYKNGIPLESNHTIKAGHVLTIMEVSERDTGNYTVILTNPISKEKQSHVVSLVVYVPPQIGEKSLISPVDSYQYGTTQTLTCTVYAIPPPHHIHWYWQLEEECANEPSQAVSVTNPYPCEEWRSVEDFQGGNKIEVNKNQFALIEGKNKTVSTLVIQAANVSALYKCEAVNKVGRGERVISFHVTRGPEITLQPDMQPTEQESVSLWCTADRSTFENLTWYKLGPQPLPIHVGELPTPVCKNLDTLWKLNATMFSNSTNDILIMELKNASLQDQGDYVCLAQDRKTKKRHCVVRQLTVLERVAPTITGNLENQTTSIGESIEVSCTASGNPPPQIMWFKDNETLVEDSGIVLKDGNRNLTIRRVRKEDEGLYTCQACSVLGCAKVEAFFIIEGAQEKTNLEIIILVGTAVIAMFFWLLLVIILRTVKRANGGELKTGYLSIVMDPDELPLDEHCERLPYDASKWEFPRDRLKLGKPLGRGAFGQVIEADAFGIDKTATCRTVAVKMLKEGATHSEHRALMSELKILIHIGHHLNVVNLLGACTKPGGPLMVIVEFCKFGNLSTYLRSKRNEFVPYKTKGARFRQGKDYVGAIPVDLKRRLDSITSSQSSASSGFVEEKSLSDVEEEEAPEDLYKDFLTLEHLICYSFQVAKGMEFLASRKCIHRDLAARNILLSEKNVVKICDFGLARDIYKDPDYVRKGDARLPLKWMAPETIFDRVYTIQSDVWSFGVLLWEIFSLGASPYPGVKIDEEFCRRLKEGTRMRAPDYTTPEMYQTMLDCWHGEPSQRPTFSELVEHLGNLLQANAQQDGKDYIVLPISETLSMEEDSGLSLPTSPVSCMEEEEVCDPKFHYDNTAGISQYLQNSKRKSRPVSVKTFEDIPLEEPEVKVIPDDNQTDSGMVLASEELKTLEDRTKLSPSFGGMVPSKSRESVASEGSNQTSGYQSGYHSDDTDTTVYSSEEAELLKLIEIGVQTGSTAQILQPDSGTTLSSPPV
Description: as §1

SYK = target: T4, SYK (Homo sapiens, UniProt P43405); details: derived from % inhibition at 1 μM
T4 construct: purchased
Description: as §1

PAK2 = target: T5, PAK2 (Homo sapiens, UniProt Q13177); details: derived from % inhibition at 1 μM
T5 construct: purchased
Description: as §1

PRKAA1 = target: T6, PRKAA1 (Homo sapiens, UniProt Q13131); details: derived from % inhibition at 1 μM
T6 construct: purchased
T6 sequence (Q13131 whole entry, species assumed): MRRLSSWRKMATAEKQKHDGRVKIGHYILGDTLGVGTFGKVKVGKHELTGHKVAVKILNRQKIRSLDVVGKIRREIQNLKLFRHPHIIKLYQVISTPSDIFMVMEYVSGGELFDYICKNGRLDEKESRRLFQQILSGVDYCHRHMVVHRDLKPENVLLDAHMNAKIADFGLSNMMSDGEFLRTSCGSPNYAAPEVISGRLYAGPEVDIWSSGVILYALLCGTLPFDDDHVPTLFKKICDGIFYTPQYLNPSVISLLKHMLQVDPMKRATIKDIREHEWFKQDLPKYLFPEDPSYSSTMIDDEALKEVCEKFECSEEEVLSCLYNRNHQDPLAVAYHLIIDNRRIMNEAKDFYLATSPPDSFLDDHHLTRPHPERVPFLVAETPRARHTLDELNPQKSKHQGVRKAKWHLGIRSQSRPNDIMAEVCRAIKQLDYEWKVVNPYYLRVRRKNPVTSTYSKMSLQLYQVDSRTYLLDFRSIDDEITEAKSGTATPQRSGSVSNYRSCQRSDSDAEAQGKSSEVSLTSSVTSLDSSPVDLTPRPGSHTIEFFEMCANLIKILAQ
T6 sequence (Q9Y478 whole entry partner, species assumed): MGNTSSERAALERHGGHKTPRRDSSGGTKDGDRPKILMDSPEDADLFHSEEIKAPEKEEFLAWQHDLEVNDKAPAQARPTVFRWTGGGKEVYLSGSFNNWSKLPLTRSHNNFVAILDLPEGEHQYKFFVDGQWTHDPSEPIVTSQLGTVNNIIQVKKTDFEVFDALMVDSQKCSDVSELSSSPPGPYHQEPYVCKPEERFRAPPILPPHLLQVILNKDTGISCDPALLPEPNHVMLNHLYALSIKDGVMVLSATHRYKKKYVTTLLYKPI
T6 sequence (P54619 whole entry partner, species assumed): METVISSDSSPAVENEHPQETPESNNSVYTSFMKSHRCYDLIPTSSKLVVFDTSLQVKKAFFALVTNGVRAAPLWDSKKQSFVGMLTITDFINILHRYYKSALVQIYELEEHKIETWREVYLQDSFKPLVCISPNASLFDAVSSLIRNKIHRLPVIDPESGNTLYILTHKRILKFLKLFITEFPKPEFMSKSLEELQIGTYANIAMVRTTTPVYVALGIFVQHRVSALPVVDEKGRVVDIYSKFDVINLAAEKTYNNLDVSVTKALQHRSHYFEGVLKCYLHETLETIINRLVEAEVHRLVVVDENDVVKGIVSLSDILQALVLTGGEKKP
Description: as §1

PLK1 = target: T7, PLK1 (Homo sapiens, UniProt P53350); details: derived from % inhibition at 1 μM
T7 construct: purchased
T7 sequence (P53350 whole entry, species assumed): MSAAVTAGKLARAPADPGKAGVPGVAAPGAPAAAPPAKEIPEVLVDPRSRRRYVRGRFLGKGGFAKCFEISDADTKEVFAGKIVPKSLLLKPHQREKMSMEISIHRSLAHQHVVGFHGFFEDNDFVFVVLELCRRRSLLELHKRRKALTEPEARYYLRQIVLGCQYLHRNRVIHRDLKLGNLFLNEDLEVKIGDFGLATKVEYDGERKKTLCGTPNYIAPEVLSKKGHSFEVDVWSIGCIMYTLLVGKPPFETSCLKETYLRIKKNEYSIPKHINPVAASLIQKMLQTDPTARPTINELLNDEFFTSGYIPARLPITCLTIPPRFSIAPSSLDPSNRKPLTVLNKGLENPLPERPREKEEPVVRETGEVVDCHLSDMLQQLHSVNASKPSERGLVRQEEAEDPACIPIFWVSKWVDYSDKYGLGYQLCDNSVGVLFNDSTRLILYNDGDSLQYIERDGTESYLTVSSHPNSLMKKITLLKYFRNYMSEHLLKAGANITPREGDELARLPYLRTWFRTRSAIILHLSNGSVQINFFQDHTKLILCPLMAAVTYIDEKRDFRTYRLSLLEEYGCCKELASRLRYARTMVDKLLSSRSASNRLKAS
Description: as §1

MAPKAPK3 = target: T8, MAPKAPK3 (Homo sapiens, UniProt Q16644); details: derived from % inhibition at 1 μM
T8 construct: purchased
T8 sequence (Q16644 whole entry, species assumed): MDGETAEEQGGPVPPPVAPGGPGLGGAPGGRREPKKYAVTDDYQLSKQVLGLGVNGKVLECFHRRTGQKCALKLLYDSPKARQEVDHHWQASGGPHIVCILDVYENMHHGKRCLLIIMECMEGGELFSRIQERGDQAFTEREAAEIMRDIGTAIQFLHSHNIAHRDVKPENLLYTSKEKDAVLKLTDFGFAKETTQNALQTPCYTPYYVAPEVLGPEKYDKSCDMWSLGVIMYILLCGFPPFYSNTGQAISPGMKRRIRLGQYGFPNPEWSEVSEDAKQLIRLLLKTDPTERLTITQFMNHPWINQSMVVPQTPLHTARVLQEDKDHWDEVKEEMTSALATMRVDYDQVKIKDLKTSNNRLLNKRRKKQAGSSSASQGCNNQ
Description: as §1

DYRK1A = target: T9, DYRK1A (Homo sapiens, UniProt Q13627); details: derived from % inhibition at 1 μM
T9 construct: purchased
Description: as §1

SGK = target: T10, SGK (Homo sapiens, UniProt O00141); details: derived from % inhibition at 1 μM
T10 construct: purchased
T10 sequence (O00141 1-431): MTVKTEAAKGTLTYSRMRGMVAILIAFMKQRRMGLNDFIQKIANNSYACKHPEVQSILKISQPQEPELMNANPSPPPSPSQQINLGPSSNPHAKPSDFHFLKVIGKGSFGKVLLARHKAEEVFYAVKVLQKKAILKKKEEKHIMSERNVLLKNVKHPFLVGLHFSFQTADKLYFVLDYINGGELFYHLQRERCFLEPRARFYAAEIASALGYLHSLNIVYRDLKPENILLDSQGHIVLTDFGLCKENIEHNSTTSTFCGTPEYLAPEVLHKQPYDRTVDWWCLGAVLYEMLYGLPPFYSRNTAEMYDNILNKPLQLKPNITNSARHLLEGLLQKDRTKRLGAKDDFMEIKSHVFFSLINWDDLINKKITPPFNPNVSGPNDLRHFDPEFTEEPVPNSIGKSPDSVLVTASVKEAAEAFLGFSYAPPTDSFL
Description: as §1

AURKA (Aurora A) = target: T11, AURKA (Aurora A) (Homo sapiens, UniProt O14965); details: for IC50: derived from % inhibition at 1 μM; for remaining activity at 1 µM: read-out: residual kinase activity Aurora A
T11 construct: purchased
T11 sequence (O14965 1-403): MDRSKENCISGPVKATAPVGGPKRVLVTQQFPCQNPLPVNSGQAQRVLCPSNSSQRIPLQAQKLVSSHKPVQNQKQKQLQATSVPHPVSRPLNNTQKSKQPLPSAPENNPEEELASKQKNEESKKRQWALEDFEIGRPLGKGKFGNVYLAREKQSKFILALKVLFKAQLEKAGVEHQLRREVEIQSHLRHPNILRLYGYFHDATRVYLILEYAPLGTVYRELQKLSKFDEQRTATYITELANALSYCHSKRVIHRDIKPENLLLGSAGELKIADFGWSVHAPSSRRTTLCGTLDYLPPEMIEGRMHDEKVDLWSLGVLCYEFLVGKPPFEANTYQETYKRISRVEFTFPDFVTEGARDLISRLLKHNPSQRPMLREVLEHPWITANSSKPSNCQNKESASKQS
Description: as §1

CAMKK2 = target: T12, CAMKK2 (Homo sapiens, UniProt Q96RR4); details: derived from % inhibition at 1 μM
T12 construct: purchased
Description: as §1

RIPK2 = target: T13, RIPK2 (Homo sapiens, UniProt O43353); details: derived from % inhibition at 1 μM
T13 construct: purchased
T13 sequence (O43353 whole entry, species assumed): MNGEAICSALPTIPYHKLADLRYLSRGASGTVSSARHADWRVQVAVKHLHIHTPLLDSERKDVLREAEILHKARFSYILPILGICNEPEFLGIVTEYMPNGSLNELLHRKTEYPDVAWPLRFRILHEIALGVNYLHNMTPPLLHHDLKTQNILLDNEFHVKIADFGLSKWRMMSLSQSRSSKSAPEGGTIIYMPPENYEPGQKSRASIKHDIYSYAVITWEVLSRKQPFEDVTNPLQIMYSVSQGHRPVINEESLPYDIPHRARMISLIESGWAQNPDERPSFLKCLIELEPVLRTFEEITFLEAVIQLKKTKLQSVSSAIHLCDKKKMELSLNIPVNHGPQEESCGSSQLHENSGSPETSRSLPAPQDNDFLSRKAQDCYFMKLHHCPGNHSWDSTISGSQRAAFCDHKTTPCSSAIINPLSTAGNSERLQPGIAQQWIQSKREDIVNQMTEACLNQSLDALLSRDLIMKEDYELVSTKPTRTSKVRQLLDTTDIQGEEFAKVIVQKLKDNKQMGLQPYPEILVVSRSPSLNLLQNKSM
Description: as §1

TGFBR1 = target: T14, TGFBR1 (Homo sapiens, UniProt P36897); details: derived from % inhibition at 1 μM
T14 construct: purchased
T14 sequence (P36897 34-503): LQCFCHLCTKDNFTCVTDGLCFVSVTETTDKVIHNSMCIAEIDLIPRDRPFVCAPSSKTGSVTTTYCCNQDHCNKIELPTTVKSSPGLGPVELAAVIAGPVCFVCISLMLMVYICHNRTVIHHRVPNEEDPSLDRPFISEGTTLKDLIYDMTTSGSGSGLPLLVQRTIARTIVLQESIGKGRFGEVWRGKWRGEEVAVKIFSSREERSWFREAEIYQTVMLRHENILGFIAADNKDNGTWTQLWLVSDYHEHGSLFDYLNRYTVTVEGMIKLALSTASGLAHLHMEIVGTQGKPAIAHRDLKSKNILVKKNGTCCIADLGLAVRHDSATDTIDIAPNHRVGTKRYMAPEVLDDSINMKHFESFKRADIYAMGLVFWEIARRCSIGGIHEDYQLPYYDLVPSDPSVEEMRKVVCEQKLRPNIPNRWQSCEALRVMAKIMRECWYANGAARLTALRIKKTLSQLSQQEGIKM
Description: as §1

T1 sequence (Q06187 whole entry, species assumed): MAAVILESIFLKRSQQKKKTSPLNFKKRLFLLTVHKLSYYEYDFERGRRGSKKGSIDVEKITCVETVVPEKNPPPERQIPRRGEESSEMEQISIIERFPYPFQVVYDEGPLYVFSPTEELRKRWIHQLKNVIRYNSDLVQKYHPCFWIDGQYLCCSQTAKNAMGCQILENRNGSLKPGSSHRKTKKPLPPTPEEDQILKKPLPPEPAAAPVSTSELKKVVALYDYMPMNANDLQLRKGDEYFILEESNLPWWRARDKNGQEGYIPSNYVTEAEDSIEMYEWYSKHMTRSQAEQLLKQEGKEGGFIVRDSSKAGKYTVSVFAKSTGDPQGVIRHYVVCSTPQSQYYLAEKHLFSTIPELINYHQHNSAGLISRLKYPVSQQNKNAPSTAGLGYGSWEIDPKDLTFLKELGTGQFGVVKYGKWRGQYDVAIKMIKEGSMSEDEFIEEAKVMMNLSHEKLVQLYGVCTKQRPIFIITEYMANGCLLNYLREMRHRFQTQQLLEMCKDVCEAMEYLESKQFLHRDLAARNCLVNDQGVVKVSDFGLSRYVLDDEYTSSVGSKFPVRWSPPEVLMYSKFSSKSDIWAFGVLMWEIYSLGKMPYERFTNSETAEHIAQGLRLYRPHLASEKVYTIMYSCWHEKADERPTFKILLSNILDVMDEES

| Compound | IC50 (BTK) | IC50 (MAPKAPK5) | IC50 (KDR (VEGFR)) | IC50 (SYK) | IC50 (PAK2) | IC50 (PRKAA1) | IC50 (PLK1) | IC50 (MAPKAPK3) | IC50 (DYRK1A) | IC50 (SGK) | IC50 (AURKA (Aurora A)) | IC50 (CAMKK2) | IC50 (RIPK2) | IC50 (TGFBR1) | remaining activity at 1 µM (AURKA (Aurora A)) | remaining activity at 1 µM (KDR (VEGFR); read-out: residual kinase activity VEGFR) |
| --- | --- | --- | --- | --- | --- | --- | --- | --- | --- | --- | --- | --- | --- | --- | --- | --- |
| CC(C)(C)OC(=O)Nc1ncsc1C#CCN1C(=O)c2ccccc2C1=O [Compound A26, tert-butyl{5-[3-(1,3-dioxo-1,3-dihydroisoindol-2-yl)prop-1-ynyl]-thiazol-4-yl}carbamate] | > 1 µM | 1 to 10 µM | > 1000 nM | > 1 µM | > 1000 nM | 10 to 100 µM | > 1000 nM | > 1 µM | 10 to 100 µM | 1 to 10 µM | 1000 to 10000 nM | 10 to 100 µM | 10 to 100 µM | 10 to 100 µM | – | – |
| Nc1ncsc1C#Cc1cccc(O)c1 [Compound A27, 3-(4-aminothiazol-5-ylethynyl)phenol] | 10 to 100 µM | 10 to 100 µM | 1000 to 10000 nM | 10 to 100 µM | > 1000 nM | 1 to 10 µM | 10000 to 100000 nM | 10 to 100 µM | 10 to 100 µM | > 1 µM | 1000 to 10000 nM | 10 to 100 µM | 1 to 10 µM | 1 to 10 µM | – | – |
| c1ccc(Cc2c[nH]c3ncsc23)cc1 [Compound A7, 6-benzyl-4H-pyrrolo[2,3-d]thiazole] | 10 to 100 µM | > 1 µM | 1000 to 10000 nM | > 1 µM | 1000 to 10000 nM | 10 to 100 µM | > 1000 nM | > 1 µM | > 1 µM | > 1 µM | 10 to 1000 nM | 10 to 100 µM | 10 to 100 µM | 10 to 100 µM | 33% | – |
| CC(C)(C)OC(=O)Nc1nc(-c2ccncc2)sc1C#CCN1CCOCC1 [Compound A25, tert-butyl[5-(3-morpholin-4-ylprop-1-ynyl)-2-pyridin-4-ylthiazol-4-yl]-carbamate] | 10 to 100 µM | > 1 µM | > 1000 nM | > 1 µM | > 1000 nM | 10 to 100 µM | > 1000 nM | 10 to 100 µM | > 1 µM | 10 to 100 µM | > 1000 nM | > 1 µM | > 1 µM | 1 to 10 µM | – | – |
| Nc1ncsc1C#Cc1cnc2[nH]ccc2c1 [Compound A22, 5-(1H-pyrrolo[2,3-b]pyridin-5-ylethynyl)thiazol-4-ylamine] | 10 to 100 µM | 10 to 100 µM | 10 to 1000 nM | 10 to 100 µM | > 1000 nM | 10 to 100 µM | 1000 to 10000 nM | > 1 µM | > 1 µM | 1 to 10 µM | 10 to 1000 nM | > 1 µM | 1 to 10 µM | 10 to 100 µM | 39% | 11% |
